Test results published in patent US7754718B2 (priority 2004, dated 2010).
Where a name gives a salt, the structure may show the parent alone. Read-outs that look alike come from different tables or passages of the source.

Assays:
[1] = tested on: HBV; experiment: In vitro antiviral assay for HBV (Table 1); type: cell-based, Hepatitis B virus; details: read-out: Antiviral Activities (EC50, μM) HBV
Protocol: (§1) The antiviral assays for HBV, (Doong et al., 1991, Proc. Natl. Acad. Sci. U.S.A. 88:8495-8499) HSV-1, (Bastow et al., 1983, Antimicrob. Agents Chemother. 23: 914-917) HSV-2, (Bastow et al., 1983, Antimicrob. Agents Chemother. 23:914-917) EBV, (Yao et al., 1993, Antimicrob. Agents Chemother. 37:1420-1425), CMV (Andreoni et al., 2002, J. Med. Virol. 67:33-40) and HIV (Mellors et al., 1992, Mol. Pharmacol. 41: 446-451) were performed according to the previously reported procedures. Anti-HCV activities were tested in Huh-Luc/neo cell line. Cells were seeded into 48-well plates and grown until confluent. Different concentrations of drugs were added into media (DMEM, 10% dFBS) and incubated for 3 days. At the end of 3-day treatment, medium were removed and 50 μl of Passive lysis buffer (Promega) were added. Cell lysate was shaken at room temperature for 15 min. 30 μl/well of cell lysate was transferred to another 96-well plate, 100 μl/well of luciferase activity assay substrate was added into plate and read by a luminometer (Amersham) immediately.

[2] = tested on: HCV; experiment: Anti-HCV activity in Huh-Luc/neo cell line, luciferase activity after 3-day treatment; type: cell-based, Hepatitis C virus; details: Huh-Luc/neo cells; for EC50: given as a bound only, read-out: Antiviral Activities (EC50, μM) HCV
Protocol: as §1

[3] = tested on: HSV-1; experiment: In vitro antiviral assay for HSV-1; type: cell-based, Herpes Simplex Virus 1
Protocol: as §1

[4] = tested on: HSV-2; experiment: In vitro antiviral assay for HSV-2; type: cell-based, Herpes Simplex Virus 2
Protocol: as §1

[5] = tested on: EBV; experiment: In vitro antiviral assay for EBV; type: cell-based, Epstein-Barr Virus
Protocol: as §1

[6] = tested on: CMV; experiment: In vitro antiviral assay for CMV; type: cell-based, cytomegalovirus
Protocol: as §1

[7] = tested on: HIV; experiment: In vitro antiviral assay for HIV; type: cell-based, human immunodeficiency virus; details: (T) after a value means toxic
Protocol: as §1

[8] = Cell cytotoxicity assay on MT-2 cells; type: cell-based; details: human, read-out: Cytotoxity (ID50, μM) MT-2
Protocol: (§2) Cytotoxicities of test compounds on MT-2 (Mellors et al., 1992 Mol. Pharmacol. 41:446-451) and CEM (Grove et al., 1995, Cancer Res. 55:3008-3011) cells were determined according to the previously reported procedures. Hepg2 cells were seeded at a density of 10^4 cells/ml/well in 24-well plates and cultured in MEME supplemented with 10% FBS at 37° C. and 5% CO2. Each test compound at different concentrations was added on the second day of the culture and the cells were incubated for another 3 days. At the end of the incubation period, the medium was removed and 0.5 ml of 0.5% methylene blue in 50% ethanol (v/v) was added to each well and set at room temperature for 30-60 minutes. The methylene blue was removed; the plates were washed with water and allowed to air dry. Once dry, 1% sarcosyl was added to dissolve the stained cell layer. The absorbance at 595 nm was measured with a microplate reader (Molecular Devices Corp. Sunnyvale, Calif.). The cytotoxicity to CEM cell was calculated as described previously (Grove et al., 1995, Cancer Res. 55 (14): 3008-3011).

[9] = Cell cytotoxicity assay on CEM cells; type: cell-based; details: human, read-out: Cytotoxity (ID50, μM) CEM
Protocol: as §2

[10] = tested on: MT-2 cells; experiment: Cell cytotoxicity assay on MT-2 cells; type: cell-based; details: read-out: Cytotoxity (ID50, μM) MT-2
Protocol: as §2

[11] = tested on: CEM cells; experiment: Cell cytotoxicity assay on CEM cells; type: cell-based; details: read-out: Cytotoxity (ID50, μM) CEM
Protocol: as §2

[12] = tested on: HCV; details: ribavirin alone; cited from earlier work
[13] = tested on: HCV; details: patients chronically infected with HCV, IFN as sole treatment; cited from earlier work
[14] = Hepatitis C virus, 72 h, at 10 μM, 3 days, read-out: HCV percent of inhibition
[15] = Human alphaherpesvirus 1, read-out: Antiviral Activities (EC50, μM) HSV-1
[16] = Human alphaherpesvirus 2, read-out: Antiviral Activities (EC50, μM) HSV-2
[17] = human gammaherpesvirus 4, read-out: Antiviral Activities (EC50, μM) EBV
[18] = Human betaherpesvirus 5, read-out: Antiviral Activities (EC50, μM) CMV
[19] = Human immunodeficiency virus 1, read-out: Antiviral Activities (EC50, μM) HIV, in vitro
[20] = Hepatitis C virus, 72 h, 3 days
[21] = in vitro, read-out: Antiviral Activities (EC50, μM) HSV-1
[22] = in vitro, read-out: Antiviral Activities (EC50, μM) HSV-2
[23] = in vitro, read-out: Antiviral Activities (EC50, μM) EBV
[24] = in vitro, read-out: Antiviral Activities (EC50, μM) HIV

Row | Molecule | EC50 ([1]; Hepatitis B virus) [µM] | EC50 [3, 15] [µM] | EC50 [4, 16] [µM] | EC50 [5, 17] [µM] | EC50 [6, 18] [µM] | EC50 [7, 19] [µM] | IC50 [8] [µM] | IC50 [9] [µM] | melting point | EC50 [2, 20] [µM] | also measured
1 | O=C([O-])c1cc2ccc3c(c2c(-c2ccc4c(c2)OCO4)c1CO)OCO3.[Na+] [Compound 3, 9-Benzo[1,3]dioxol-5-yl-8-hydroxymethyl-naphtho[1,2-d][1,3]dioxole-7-carboxylic acid monosodium salt] | 3.4 | 9 | 25 | > 20 | 2.5 | > 10 | 10 | 30 | 128 to 130 °C |  | inhibition at 10 µM [2, 14]: 25%
2 | O=C(NCCCOCc1ccccc1)c1cc2ccc3c(c2c(-c2ccc4c(c2)OCO4)c1COCc1ccccc1)OCO3 [Compound 8, 9-Benzo[1,3]dioxol-5-yl-8-benzyloxymethyl-naphtho[1,2-d][1,3]dioxole-7-carboxylic acid (3-benzyloxy-propyl)-amide] | > 10 | > 25 | > 25 | > 15 | 3.7 | > 100 | > 100 | 10 |  | > 10 | 
3 | O=C1c2cc3ccc4c(c3c(-c3ccc5c(c3)OCO5)c2C(=O)N1CCCOCc1ccccc1)OCO4 [Compound 10, 10-Benzo[1,3]dioxol-5-yl-8-(3-benzyloxy-propyl)-1,3-dioxa-8-aza-dicycloplenta[a,g]naphthalene-7,9-dione] |  |  |  |  |  |  |  |  |  |  | EC50 ([1]; in vitro): > 10 µM; HCV percent of inhibition ([2]; at 10 μM, 3 days): 62%; EC50 [3, 21]: > 50 µM; EC50 [4, 22]: > 50 µM; EC50 [5, 23]: > 5 µM; EC50 [7, 24]: > 100 µM; IC50 [10]: > 100 µM; IC50 [11]: > 100 µM
4 | NC(=O)c1cc2ccc3c(c2c(-c2ccc4c(c2)OCO4)c1C(=O)O)OCO3 [Compound 12, 9-Benzo[1,3]dioxol-5-yl-7-carbamoyl-naphtho[1,2-d][1,3]dioxole-8-carboxylic acid] | 0.8 | 0.15 | < 0.1 | 9 | 0.45 | > 5 | 5 | 8.4 |  |  | inhibition at 3 µM ([2]; Hepatitis C virus, 72 h, at 3 μM, 3 days, read-out: HCV percent of inhibition): 58%; times more potent than the reference drug acylclovir against HSV-1 ([3]; ratio of EC50 values): about 140 times; times more potent than the reference drug acylclovir against HSV-2 ([4]; ratio of EC50 values): ~210 times
5 | O=C1NCc2cc3ccc4c(c3c(-c3ccc5c(c3)OCO5)c21)OCO4 [Compound 16, 10-Benzo[1,3]dioxol-5-yl-7,8-dihydro-13-dioxa-8-aza-dicyclopenta[a,g]naphthalen-9-one] |  |  |  |  |  |  |  |  |  |  | EC50 ([1]; in vitro): > 10 µM; EC50 ([2]; 3 days): > 10 µM; EC50 [3, 21]: > 50 µM; EC50 [4, 22]: > 50 µM; EC50 [5, 23]: > 20 µM; EC50 [7, 24]: > 100 µM; IC50 [10]: > 100 µM; IC50 [11]: 90 µM
6 | O=C1c2cc3ccc4c(c3c(-c3ccc5c(c3)OCO5)c2C(=O)N1O)OCO4 [Compound 24, 10-Benzo[1,3]dioxol-5-yl-8-hydroxy-1,3-dioxa-8-aza-dicyclopenta[a,g]naphthalene-7,9-dione] | > 5 | > 30 | > 30 | > 5 | 4.1 | > 16 | 16 | 17 | 255 °C (dec.) | > 10 | 
7 | O=C1c2cc3ccc4c(c3c(-c3ccc5c(c3)OCO5)c2C(=O)N1CCCO)OCO4 [Compound 29, 10-Benzo[1,3]dioxol-5-yl-8-(3-hydroxy-propyl)-1,3-dioxa-8-aza-dicyclopenta[a,g]naphthalene-7,9-dione] | > 5 | > 30 | > 30 | > 5 | 8.1 | > 22 | 22 | 27 | 150 to 152 °C | > 10 | 
8 | O=C1OCc2c1cc1c(Cl)cc3c(c1c2-c1ccc2c(c1)OCO2)OCO3 [Compound 37, 10-Benzo[1,3]dioxol-5-yl-5-chloro-9H-furo[3′,4′:6,7]naphtho[1,2-d][1,3]dioxol-7-one] | > 10 | 23 | > 25 | > 20 | 8.8 | > 50 | 50 | 27 | 267 °C (dec.) | > 10 | 
9 | O=c1[nH][nH]c(=O)c2c(-c3ccc4c(c3)OCO4)c3c4c(cc(Br)c3cc12)OCO4 [Compound 42, 11-Benzo[1,3]dioxol-5-yl-5-bromo-8,9-dihydro-[1,3]dioxa-8,9-diaza-cyclopenta[a]anthracene-7,10-dione] |  |  |  |  |  |  |  |  |  |  | EC50 ([1]; in vitro): > 20 µM; HCV percent of inhibition ([2]; at 3 μM, 3 days): 45%; EC50 [3, 21]: 16 µM; EC50 [4, 22]: > 20 µM; EC50 [5, 23]: > 20 µM; IC50 [10]: > 100 µM; IC50 [11]: 28 µM
10 | O=C([O-])c1cc2c(Cl)cc3c(c2c(-c2ccc4c(c2)OCO4)c1CO)OCO3.[Na+] [Compound 44, 9-Benzo[1,3]dioxol-5-yl-5-chloro-8-hydroxymethyl-naphtho[1,2-d][1,3]dioxole-7-carboxylic acid monosodium salt] | > 10 | > 50 | > 50 | > 20 | > 20 | > 60 | 60 | > 100 | 220 °C (dec.) | > 10 | 
11 | O=C(O)c1cc2c(Br)cc3c(c2c(-c2ccc4c(c2)OCO4)c1CO)OCO3 [Compound 45, 9-Benzo[1,3]dioxol-5-yl-5-bromo-8-hydroxymethyl-naphtho[1,2-d][1.3]dioxole-7-carboxylic acid monosodium salt] |  |  |  |  |  |  |  |  |  |  | EC50 ([1]; in vitro): > 10 µM; EC50 [3, 21]: > 50 µM; EC50 [4, 22]: > 50 µM; EC50 [5, 23]: > 20 µM; EC50 ([6]; in vitro, read-out: Antiviral Activities (EC50, μM) CMV): > 20 µM; EC50 [7, 24]: > 50 µM; IC50 [10]: 50 µM; IC50 [11]: 46.5 µM
12 | O=C([O-])c1cc2c(I)cc3c(c2c(-c2ccc4c(c2)OCO4)c1CO)OCO3.[Na+] [Compound 46, 9-Benzo[1,3]dioxol-5-yl-8-hydroxymethyl-5-iodo-naphtho[1,2-d][1,3]dioxole-7-carboxylic acid monosodium salt] | > 18 | > 50 | > 50 | > 20 | > 20 | > 80 | 80 | > 100 | 212 °C (dec.) |  | inhibition at 10 µM [2, 14]: 36%
13 | NC(=O)c1ncn([C@@H]2O[C@H](CO)[C@@H](O)[C@H]2O)n1 [Ribavirin, 1-beta-D-ribofuranosyl-1-1,2,4-triazole-3-carboxamide] |  |  |  |  |  |  |  |  |  |  | patients in whom serum amino transferase levels are reduced to normal [12]: 40%
14 | Interferon |  |  |  |  |  |  |  |  |  |  | HCV column: concentration at which the percent of inhibition was seen ([2]; Interferon control): 10 u/ml; HCV percent of inhibition ([2]; at 10 u/ml): (90) %; patients with a sustained response [13]: 8%-9%
